Values quoted from earlier work in article PMC9851200, “Multiparameter phenotypic screening for endogenous TFEB and TFE3 translocation identifies novel chemical series modulating lysosome function” (Autophagy, 2022).

Tests used:
Parameters in all cases: method as in original PKIS2 published data
[1] = target: T1, kinases (KINOMEscan panel) (Homo sapiens, UniProt O14965); conditions: Published KINOMEscan; ref original PKIS2 published data; cited from earlier work
T1 sequence (O14965 1-403): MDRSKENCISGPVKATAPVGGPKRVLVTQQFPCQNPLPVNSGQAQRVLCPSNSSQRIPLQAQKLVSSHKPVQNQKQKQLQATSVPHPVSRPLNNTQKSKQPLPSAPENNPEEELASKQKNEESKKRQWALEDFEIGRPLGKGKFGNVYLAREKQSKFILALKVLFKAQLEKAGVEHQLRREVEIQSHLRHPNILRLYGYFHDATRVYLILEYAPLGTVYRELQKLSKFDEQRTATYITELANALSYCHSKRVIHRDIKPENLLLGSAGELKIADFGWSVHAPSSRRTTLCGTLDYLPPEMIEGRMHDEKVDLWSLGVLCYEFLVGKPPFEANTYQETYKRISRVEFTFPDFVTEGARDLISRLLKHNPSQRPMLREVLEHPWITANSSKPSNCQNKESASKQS

[2] = target: T2, kinases (KINOMEscan panel) (Homo sapiens, UniProt O76039); conditions: kinase CDKL5; Published KINOMEscan; ref original PKIS2 published data; cited from earlier work
T2 sequence (O76039 1-960): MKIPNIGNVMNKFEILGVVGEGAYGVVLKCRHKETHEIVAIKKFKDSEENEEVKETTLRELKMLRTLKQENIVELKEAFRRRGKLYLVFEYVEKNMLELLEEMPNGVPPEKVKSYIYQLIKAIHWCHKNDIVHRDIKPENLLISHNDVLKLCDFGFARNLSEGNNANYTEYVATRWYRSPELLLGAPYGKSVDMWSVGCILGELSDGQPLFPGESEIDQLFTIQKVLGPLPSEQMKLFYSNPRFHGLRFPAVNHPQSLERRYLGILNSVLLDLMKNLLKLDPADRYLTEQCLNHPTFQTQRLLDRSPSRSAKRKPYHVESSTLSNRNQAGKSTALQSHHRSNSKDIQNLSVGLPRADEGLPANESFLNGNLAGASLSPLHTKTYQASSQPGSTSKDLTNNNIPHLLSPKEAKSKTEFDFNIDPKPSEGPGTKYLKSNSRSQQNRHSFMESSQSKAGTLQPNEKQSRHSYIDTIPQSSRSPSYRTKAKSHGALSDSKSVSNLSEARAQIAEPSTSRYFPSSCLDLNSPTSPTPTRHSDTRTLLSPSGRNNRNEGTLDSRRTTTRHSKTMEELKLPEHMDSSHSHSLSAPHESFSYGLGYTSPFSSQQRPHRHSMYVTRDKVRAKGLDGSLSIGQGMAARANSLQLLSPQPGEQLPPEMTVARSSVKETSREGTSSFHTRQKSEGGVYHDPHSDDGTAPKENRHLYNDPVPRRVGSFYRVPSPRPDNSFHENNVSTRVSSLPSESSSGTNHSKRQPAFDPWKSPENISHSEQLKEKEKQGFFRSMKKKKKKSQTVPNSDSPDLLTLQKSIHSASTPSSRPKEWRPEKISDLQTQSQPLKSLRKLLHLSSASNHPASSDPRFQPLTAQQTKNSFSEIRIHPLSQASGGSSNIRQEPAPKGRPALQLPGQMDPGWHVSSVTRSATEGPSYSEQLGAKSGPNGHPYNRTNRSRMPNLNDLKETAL

[3] = target: T3, kinases (KINOMEscan panel) (Homo sapiens, UniProt Q6PHR2); conditions: kinase ULK3; Published KINOMEscan; ref original PKIS2 published data; cited from earlier work
T3 sequence (Q6PHR2 1-472): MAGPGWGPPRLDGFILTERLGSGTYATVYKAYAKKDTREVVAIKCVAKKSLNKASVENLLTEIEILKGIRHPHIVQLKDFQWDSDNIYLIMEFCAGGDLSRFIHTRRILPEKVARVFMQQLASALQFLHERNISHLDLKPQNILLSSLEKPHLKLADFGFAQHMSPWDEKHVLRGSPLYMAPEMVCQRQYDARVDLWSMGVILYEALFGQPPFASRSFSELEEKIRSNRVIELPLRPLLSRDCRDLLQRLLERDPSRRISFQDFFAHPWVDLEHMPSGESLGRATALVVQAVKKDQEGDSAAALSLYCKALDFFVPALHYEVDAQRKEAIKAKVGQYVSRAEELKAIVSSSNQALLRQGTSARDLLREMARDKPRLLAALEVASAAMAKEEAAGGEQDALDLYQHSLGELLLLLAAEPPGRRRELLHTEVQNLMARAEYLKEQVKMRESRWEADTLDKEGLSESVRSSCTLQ

[4] = target: T4, kinases (KINOMEscan panel) (Homo sapiens, UniProt Q8IVH8); conditions: Published KINOMEscan; ref original PKIS2 published data; cited from earlier work
T4 sequence (Q8IVH8 1-894): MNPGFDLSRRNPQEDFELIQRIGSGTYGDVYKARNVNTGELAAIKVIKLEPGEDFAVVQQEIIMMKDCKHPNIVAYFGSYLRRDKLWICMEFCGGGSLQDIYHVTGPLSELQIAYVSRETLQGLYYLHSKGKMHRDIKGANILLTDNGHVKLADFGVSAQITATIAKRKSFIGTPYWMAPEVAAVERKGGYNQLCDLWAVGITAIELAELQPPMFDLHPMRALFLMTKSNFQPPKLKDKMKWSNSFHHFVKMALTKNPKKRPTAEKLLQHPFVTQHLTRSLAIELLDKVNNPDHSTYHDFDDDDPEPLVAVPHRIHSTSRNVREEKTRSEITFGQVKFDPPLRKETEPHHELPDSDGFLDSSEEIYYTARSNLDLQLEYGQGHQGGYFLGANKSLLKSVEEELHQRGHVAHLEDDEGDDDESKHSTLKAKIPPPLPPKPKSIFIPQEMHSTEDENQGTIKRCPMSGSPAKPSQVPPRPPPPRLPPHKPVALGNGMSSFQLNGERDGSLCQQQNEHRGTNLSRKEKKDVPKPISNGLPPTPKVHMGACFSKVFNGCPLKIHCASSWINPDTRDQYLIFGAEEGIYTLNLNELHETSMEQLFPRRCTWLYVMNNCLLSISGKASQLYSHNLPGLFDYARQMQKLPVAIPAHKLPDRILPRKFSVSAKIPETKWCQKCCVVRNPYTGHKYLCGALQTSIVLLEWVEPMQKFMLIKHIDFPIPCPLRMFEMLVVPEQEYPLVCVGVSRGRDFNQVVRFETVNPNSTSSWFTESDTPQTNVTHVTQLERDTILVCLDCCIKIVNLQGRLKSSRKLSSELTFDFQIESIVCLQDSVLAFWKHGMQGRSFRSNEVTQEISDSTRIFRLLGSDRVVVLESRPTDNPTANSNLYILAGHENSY

[5] = target: kinases (KINOMEscan panel) (Homo sapiens, UniProt Q8NEV4); conditions: kinase MYO3A; Published KINOMEscan; ref original PKIS2 published data; cited from earlier work
Chain of kinases (KINOMEscan panel) (Homo sapiens, UniProt Q8NEV4) (Q8NEV4 whole entry): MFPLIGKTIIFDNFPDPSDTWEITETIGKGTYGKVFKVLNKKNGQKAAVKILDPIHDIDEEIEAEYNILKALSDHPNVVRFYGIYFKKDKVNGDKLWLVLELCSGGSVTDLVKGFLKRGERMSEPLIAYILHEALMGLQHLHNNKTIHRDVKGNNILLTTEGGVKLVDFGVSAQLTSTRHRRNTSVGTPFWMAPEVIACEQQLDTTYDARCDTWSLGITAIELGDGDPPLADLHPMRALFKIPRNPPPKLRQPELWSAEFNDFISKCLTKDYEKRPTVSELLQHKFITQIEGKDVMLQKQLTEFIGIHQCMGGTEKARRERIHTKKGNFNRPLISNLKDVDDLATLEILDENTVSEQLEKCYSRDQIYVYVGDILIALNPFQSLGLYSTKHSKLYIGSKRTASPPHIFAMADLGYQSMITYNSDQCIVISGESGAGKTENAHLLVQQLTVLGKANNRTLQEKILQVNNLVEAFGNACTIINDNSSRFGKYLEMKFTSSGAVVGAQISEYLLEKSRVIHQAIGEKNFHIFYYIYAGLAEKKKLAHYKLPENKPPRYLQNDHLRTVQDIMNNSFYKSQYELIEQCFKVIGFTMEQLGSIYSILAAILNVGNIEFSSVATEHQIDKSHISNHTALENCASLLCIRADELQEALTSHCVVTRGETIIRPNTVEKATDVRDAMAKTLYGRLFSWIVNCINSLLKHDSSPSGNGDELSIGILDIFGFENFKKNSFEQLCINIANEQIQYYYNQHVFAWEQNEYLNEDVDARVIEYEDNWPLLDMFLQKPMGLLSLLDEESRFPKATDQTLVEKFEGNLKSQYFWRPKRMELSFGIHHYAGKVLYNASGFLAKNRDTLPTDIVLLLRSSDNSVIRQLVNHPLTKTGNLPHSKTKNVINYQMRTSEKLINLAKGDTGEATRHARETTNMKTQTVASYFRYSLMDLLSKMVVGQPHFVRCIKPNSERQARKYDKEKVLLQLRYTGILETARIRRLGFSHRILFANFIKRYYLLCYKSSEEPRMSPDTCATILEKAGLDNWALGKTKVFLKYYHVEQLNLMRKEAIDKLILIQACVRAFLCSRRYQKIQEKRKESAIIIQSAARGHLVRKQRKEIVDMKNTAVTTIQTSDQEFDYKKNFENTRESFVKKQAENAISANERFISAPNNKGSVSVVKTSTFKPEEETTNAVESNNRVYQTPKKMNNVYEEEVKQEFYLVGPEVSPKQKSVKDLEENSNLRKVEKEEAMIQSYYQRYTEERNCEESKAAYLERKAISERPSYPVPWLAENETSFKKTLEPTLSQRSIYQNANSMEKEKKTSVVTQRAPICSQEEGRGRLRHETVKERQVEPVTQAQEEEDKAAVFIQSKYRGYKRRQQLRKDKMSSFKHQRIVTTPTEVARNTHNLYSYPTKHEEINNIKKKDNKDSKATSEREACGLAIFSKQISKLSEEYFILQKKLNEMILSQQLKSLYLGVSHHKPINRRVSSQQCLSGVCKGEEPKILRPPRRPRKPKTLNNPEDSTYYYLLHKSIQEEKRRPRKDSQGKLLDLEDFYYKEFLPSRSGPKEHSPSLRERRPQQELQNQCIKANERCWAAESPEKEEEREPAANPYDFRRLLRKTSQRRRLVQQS

## Cc1cccc(-c2nc(Nc3ccncc3)c3ccccc3n2)n1 [NK215]
[1]
  KINOMEscan AURKA: 0
[2]
  KINOMEscan CDKL5: 0
[3]
  KINOMEscan ULK3: 8
[4]
  KINOMEscan MAP4K3: 0
[5]
  KINOMEscan MYO3A: 0
